Source: the supplement of paper PMC10307832

How the values were obtained:
Experiment in all cases: relative viability (nuclei count vs DMSO), 5 days (fraction); higher = more cells survive
[1] = compound: COc1nc(N)nc2c1ncn2[C@@H]1O[C@H](CO)[C@@H](O)[C@@H]1O [Nelarabine] + CC(C)C[C@H](NC(=O)[C@H](Cc1ccccc1)NC(=O)c1cnccn1)B(O)O [Bortezomib] (partner 0.002 µM)
Summary of the method: (§1)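 Lung cancer cell lines were seeded in 1536-well plates and dosed by pin tool the next day, with either a single drug or a fixed anchor-drug dose combined with five library-drug doses (not always all listed) spaced in √10 steps. Five days later, one step fixed the cells and stained their nuclei (final 0.05% Triton X-100, 1% formaldehyde, 1 ug/ml Hoechst), and nuclei were counted on 4× images. Relative viability is the nuclei count in treated wells divided by the count in vehicle wells, and each value is the median of duplicate plates.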

[2] = compound: C=CCn1c(=O)c2cnc(Nc3ccc(N4CCN(C)CC4)cc3)nc2n1-c1cccc(C(C)(C)O)n1 [Adavosertib] + O=C(CCCCCCC(=O)Nc1ccccc1)NO [Vorinostat] (partner 1 µM)
Summary of the method: as §1

[3] = compound: COc1nc(N)nc2c1ncn2[C@@H]1O[C@H](CO)[C@@H](O)[C@@H]1O [Nelarabine] + COc1cccc2cc(-c3nc([C@H]4CC[C@H](C(=O)O)CC4)n4ncnc(N)c34)[nH]c12 [OSI-027] (partner 0.5 µM)
Summary of the method: as §1

[4] = compound: COc1nc(N)nc2c1ncn2[C@@H]1O[C@H](CO)[C@@H](O)[C@@H]1O [Nelarabine] + CC(=O)Nc1cccc(-n2c(=O)n(C3CC3)c(=O)c3c(Nc4ccc(I)cc4F)n(C)c(=O)c(C)c32)c1 [Trametinib] (partner 0.02 µM)
Summary of the method: as §1

Cell Line EMC-BAC-2 has a relative viability ([1]; first compound 0.01 µM) of 1.24, a relative viability ([1]; first compound 0.03162 µM) of 1.06 and a relative viability ([1]; first compound 0.1 µM) of 1.05. The relative viability ([1]; first compound 0.3162 µM) was 1.15, the relative viability ([1]; first compound 1 µM) was 1.04 and the relative viability ([2]; first compound 0.03162 µM) was 0.536. For the same cell line, the relative viability ([2]; first compound 0.1 µM) was 0.431, the relative viability ([2]; first compound 0.3162 µM) was 0.396 and the relative viability ([3]; first compound 0.01 µM) was 0.393. For the same cell line, the relative viability ([3]; first compound 0.03162 µM) was 0.41, the relative viability ([3]; first compound 0.1 µM) was 0.398 and the relative viability ([3]; first compound 0.3162 µM) was 0.36. It also gave a relative viability ([3]; first compound 1 µM) of 0.377, a relative viability ([4]; first compound 0.01 µM) of 0.895 and a relative viability ([4]; first compound 0.03162 µM) of 1.02. The relative viability ([4]; first compound 0.1 µM) was 0.819, the relative viability ([4]; first compound 0.3162 µM) was 0.821 and the relative viability ([4]; first compound 1 µM) was 0.916.
